# Key:
# [1] = test system: CHO cells producing ustekinumab; test: Cation exchange chromatography of acidic, main and basic species of ustekinumab from CHO cells cultured with citrulline; format: cell-based, Chinese hamster
# Experimental: (§1) The stirred tank reactors (STRs) were inoculated with the cell line C20 or with the cell line C69 in pre-heated production medium (PolCHO-P, available from GE healthcare, Catalogue Number G3258.3050), at a target density of 1.0*10^6 viable cells (vc) mL^−1. From day 3 on, 4.2% (v/v) of feed A (available from GE healthcare, Catalogue Number G3259.3010) per day was added at a continuous rate over 24 hours (equivalent to 2.9 g glucose L^−1 day^−1). If required, a D-glucose solution was used to increase glucose concentration in the broth to 4 g L^−1. In addition, 0.42% (v/v) of feed B (available from GE healthcare, Catalogue Number G3260.0001) was added every day as a bolus. For cell line C20 different concentrations of citrulline (5 g/l, 8 g/l and 12 g/l) were added to the medium and to feed A. For cell line C69 10 g/l citrulline in combination with 40 mM sucrose were added to the medium and to feed A.
# Additional samples of approximately 30 mL were collected on days 6, 10 and 14, centrifuged and stored in −80° C. for product quality analysis. […]
# (§2) For data evaluation the Waters Empower 3 software was used. The sample composition was determined by detecting peaks based on their retention time and the relative proportions of each peak were calculated from the peak areas. […]
# [2] = test system: CHO cells producing natalizumab; test: Cation exchange chromatography of acidic and basic species of natalizumab from CHO cells cultured with citrulline; format: cell-based, Chinese hamster; details: increasing concentrations of citrulline (8, 12 g/l), 14 days
# Experimental: Cell lineC4 expressing natalizumab was cultured in 15 ml AMBR microbioreactors. Dissolved oxygen tension (DOT) was controlled at 40% and the temperature maintained at 36.8° C. during the first 4 days with a temperature shift to 33° C. on day 5 for the rest of the cultivation time. The targeted viable cell concentration at inoculation was 1.0×10^6±0.1 viable cells mL^−1. The post inoculation volume of the production stage bioreactors was set to 15 mL in the microbioreactors of the AMBR system. The pH set point was 7.0±0.1. The basal medium was PolCHO-P CD (available from GE healthcare). From day 3 on, 4.2% (v/v) of PolCHO feed A (available from GE healthcare) per day was added as a bolus. If required, a D-glucose solution was used to increase glucose concentration in the broth to 4 g L^−1. In addition, 0.42% (v/v) of PolCHO feed B (available from GE healthcare) was added every day as a bolus. […]
# The separation was carried out by Cation Exchange High Performance Liquid Chromatography on the UPLC H-Class Bio System using UV detection under Empower™ Software control. […] The column temperature was 40° C. and elution was monitored at 220 nm.
# as §2
# [3] = test system: CHO cells producing ustekinumab; test: Cell diameter by LUNA cell counter; format: cell-based, Chinese hamster; details: citrulline added, vs control without citrulline (FIG. 2)
# Experimental: as §1
# b) In another set of experiments cell line C20 expressing ustekinumab was selected. This cell line was thawed and cultured in 25 mL shake flasks (SFs) containing PolCHO-P CD (GE Healthcare) medium with methotrexate and geneticin. […] Every day before feeding, glucose concentration was measured. […]
# The viable cell concentration, viability and cell size were determined using a LUNA™ cell counter with the following protocol: […]
# [4] = test system: CHO cells producing ustekinumab; test: Specific production rate (Qp) for ustekinumab; format: cell-based, Chinese hamster; details: citrulline added, vs control without citrulline (FIG. 3)
# Experimental: as §1, with “For cell line C20 different concentrations of citrulline (5 g/l, 8 g/l and 12 g/l) were added to the medium and to feed A. For cell line C69 10 g/l citrulline in combination with 40 mM sucrose were added to the medium and to feed A.” left out
# b) In another set of experiments cell line C20 expressing ustekinumab was selected. […] Every day before feeding, glucose concentration was measured. […]
# (§3) The Octet system performs label-free quantitation of antibodies, proteins, peptides, DNA and other biomolecules and provides kinetic characterization of biomolecular binding interactions. […] The binding rates of the test samples are measured and interpolated from a standard curve generated from a similar or equivalent protein to determine the concentration of the protein. […]
# [5] = test system: CHO cells producing omalizumab; test: Specific production rate (Qp) for omalizumab; format: cell-based, Chinese hamster; details: citrulline added, vs control without citrulline (FIG. 8)
# Experimental: CHO cell line 230×846 expressing the anti-IgE antibody omalizumab was selected for this experiment. The cell line was thawed and cultured in 25 mL shake flasks (SFs) containing PowerCHO-2 CD medium (Lonza) with 4 mM L-glutamine and 1% (v/v) Fe-citrate solution. Subsequently, the cells were expanded in SFs with increasing volume as seed train. 12 SFs were inoculated at a concentration of 0.5·10^6 vc mL^−1. The SFs were inoculated in 25 mL PowerCHO-2-CD medium containing L-glutamine and Fe-citrate and placed on a shaking plateau in an incubator at 37° C. On the day of inoculation, 2% (v/v) of BC feed and 0.2% (v/v) of cys/tyr feed was given. The glucose concentration was measured every day before feeding. From day 3 on, feeding was done based on glucose consumption of the previous day, aiming for a glucose concentration of 3.5 g/L. Different concentrations of citrulline were added to the medium and BC feed.
# as §3
# [6] = test system: CHO cells producing ustekinumab; test: Rapifluor-MS released N-glycan analysis of ustekinumab; format: cell-based, Chinese hamster; details: 5 g/l and 8 g/l citrulline, 12 or 14 days, vs control
# Experimental: The shake flasks were inoculated in 25 mL Actipro medium (available from GE healthcare, Catalogue number SH31039.01) and placed on a shaking plateau in an incubator at 37° C. On the day of inoculation, 2% (v/v) of Cell boost 7A (available from GE healthcare, Catalogue number SH31026.02) and 0.2% (v/v) of Cell boost 7B (available from GE healthcare, Catalogue number SH31027.01) was given. From day 3 on, a flat feed was given of 4% (v/v) of Cell boost per day. Every day before feeding, glucose concentration was measured. If required, a D-glucose solution was used to increase glucose concentration in the broth to 4 g L^−1, before feeding. In addition, 0.4% (v/v) of Cell boost 7B was added every day as a bolus. Different concentrations of citrulline (5 g/l and 8 g/l) were added to the medium and to Cell boost 7A. At day 5 after inoculating the cells into the cell culture medium the temperature of the cell culture was reduced to 31° C.±0.2° C.
# The N-glycan composition and relative distribution thereof was analyzed using the Rapifluor MS N-Glycan Kit purchased from Waters, using the manufacturer's instructions. It comprises denaturation and release of N-linked glycans by PNGase F from Protein A purified material. The released glycans are then labeled with the proprietary Rapifluor label, which contains a fluorescent moiety and a proton capturing moiety. […]
# CHO cells = test: Citrulline concentration in culture medium during fermentation (UPLC-MS); format: in vitro ADME, Chinese hamster; details: cell line C69, stirred tank reactor, 10 g/l citrulline, days 8, 11, 13, 14
# Experimental: Additional samples of approximately 30 mL were collected on days 6, 10 and 14, centrifuged and stored in −80° C. for product quality analysis. For the experiments with cell line C69 samples were also taken to determine the concentration of citrulline at different time points (days 8, 11, 13 and 14) during the bioreactor run.
# To determine if citulline can be metabolised by CHO cells clarified samples were taken from the stirred tank reactor run with clone C69. Quantification of the concentration of citrulline during the culture was standardized using a 10 g/l citulline solution in WFI and the PolCHO medium was used as a negative control.
# About 1 mL of culture medium was centrifuged in an Eppendorf centrifuge at 15000 rpm and at 4° C. for 10 minutes. […]
# Using reference sample, the molecular mass of citrulline was confirmed by UPLC-MS to be 175.08 Da. The concentration of citrulline in the reference sample was 55.84 mM as determined by qNMR. The citrulline concentrations in culture medium samples of days 8, 11, 13 and 14 were determined by UPLC-MS analysis after appropriate dilution of the samples and by using external calibration lines prepared using the reference sample. No citrulline was detected in POLCHO medium (see FIG. 11).
compound,measurement,setting,value
NC(=O)NCCC[C@H](N)C(=O)O [citrulline],basic peaks of ustekinumab,"[1]; 12 g L^-1 citrulline, day 14, control 11%",22%
same,acidic 2 peaks of ustekinumab,"[1]; increasing concentrations of citrulline (5, 8, 12 g/l), day 14, vs control",decreased dose-dependently
same,sum of acidic peaks of natalizumab,[2],decreased dose-dependently
same,sum of basic peaks of natalizumab,[2],increased dose-dependently
same,diameter of the cells,[3],increases
same,specific production rate Qp for ustekinumab,[4],increases
same,specific production rate Qp for omalizumab,[5],same increase
same,"G0F, G1F, G1'F, G2F and sum of sialylated species",[6],no differences
same,concentration of citrulline during the fermentation,CHO cells,does not change significantly

# — patent US12043845B2, “Methods of cell culture” (Polpharma Biologics S.A., priority 2017, dated 2024)
